Data published in ChEMBL document CHEMBL3045138, “Peroxidizing Phytotoxic Activity of Pyrazoles” (J Pestic Sci, 1995).

What was measured:
[1] = test system: Scenedesmus acutus; assay: Growth inhibition of Scenedesmus acutus assessed as packed cell volume per ml of algal culture volume after 16 hr (reference value: 3.8 ul pcv/ml); type: functional
[2] = test system: Scenedesmus acutus; assay: Phytotoxicity against Scenedesmus acutus assessed as inhibition of chlorophyll content after 16 hr by spectrophotometry relative to untreated control; type: functional

Compound | Activity [1] [uL/ml] | inhibition (INH) [2] [%]
C#CCOc1cc(-n2nc(C)c(Cl)c2C)c(Cl)cc1Cl | 4 | 0
C#CCOc1cc(-n2nc(C)c(Cl)c2C)c(F)cc1Cl | 2.7 | 38.5
C#CCOc1cc(-n2nc(C)c(Cl)c2C)c(Cl)cc1F | 3.1 | 26.7
COc1cc(-n2nc(C)c(C)c2C)c(F)cc1Cl | 4.1 | 0
C/C=C/COc1cc(-n2nc(C)c(C)c2C)c(F)cc1Cl | 3.5 | 17.2
Cc1cc(C)n(-c2ccc(Cl)cc2F)n1 | 4.1 | 0
N#Cc1cnn(-c2c(Cl)cc(C(F)(F)F)cc2Cl)c1N | 2 | 61
C#CCOc1cc(-n2nc(CC)c(Cl)c2CC)c(F)cc1Cl | 2.7 | 30.3
C#CCOc1cc(N2C(=O)C3=C(CCCC3)C2=O)c(F)cc1Cl | 2.4 | 73.6
Cc1nn(-c2cc(OC(C)C)c(Cl)cc2F)c(C)c1C | 3.9 | 11.1
CCOc1cc(Oc2ccc(C(F)(F)F)cc2Cl)ccc1[N+](=O)[O-] [OXYFLUORFEN] | 1.4 | 92.2
O=C1C2=C(CCCC2)C(=O)N1c1ccc(Cl)cc1 [CHLOROPHTHALIUM] | 2.5 | 72.3
C#CCOc1cc(-n2nc(C)c([N+](=O)[O-])c2C)c(F)cc1Cl | 2.5 | 46
Fc1cc(Cl)c(OC(F)F)cc1-n1nc2c(c1Cl)CCCC2 | 1.5 | 89.7
Cc1nn(-c2cc(OC(C)C)c(Cl)cc2F)c(C)c1[N+](=O)[O-] | 3.5 | 17.7
